Laboratory results reported in PubChem BioAssay (NCI).
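Cells were grown in 96-well plates and exposed to each compound for 48 hours at five concentrations; endpoints were interpolated linearly between bracketing concentrations, or set to the highest concentration if not reached. The concentration for 50% growth inhibition is given as GI50. TGI is the concentration that stops growth completely.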

Columns and labels:
Experiment in all cases: growth of human tumour cells (NCI), 48 h
DU-145 prostate = test system: DU-145 prostate
MCF7 breast = test system: MCF7 breast
PC-3 prostate = test system: PC-3 prostate

Row | SMILES | GI50 (DU-145 prostate) | TGI (DU-145 prostate) | GI50 (MCF7 breast) | TGI (MCF7 breast) | GI50 (PC-3 prostate) | TGI (PC-3 prostate)
1 | CN(C)c1ccc(/C=N/Nc2ccc(-c3nc4ccccc4[nH]3)cc2)cc1 | 37.8 µM | > 50 µM | 8.44 µM | 35.6 µM | 7.27 µM | > 50 µM
2 | N#CC(C#N)=C/C=C/c1cccc([N+](=O)[O-])c1 | 1.05 µM | 12.8 µM | 0.482 µM | 9.55 µM | 2.09 µM | 19.3 µM
3 | COc1ccccc1OCC(O)CO (stereo unspecified) | > 100 µM | > 100 µM | > 100 µM | > 100 µM | > 100 µM | > 100 µM
4 | NC(=NC1C2CC3CC(C2)CC1C3)Nc1ccc(I)cc1 (stereo unspecified) | 3.66 µM | 12.6 µM | 2.45 µM | 10.7 µM | 3.14 µM | 12.2 µM
5 | C=C(C)[C@@H]1CC[C@]2(C#N)CC[C@]3(C)[C@H](CC[C@@H]4[C@@]5(C)CCCNC(C)(C)[C@@H]5CC[C@]43C)[C@@H]12 | 1.85 µM | 3.48 µM | 1.53 µM | 2.91 µM | 2.7 µM | 10.7 µM
6 | COc1cc(SC)ccc1C(=O)N1CCCC(C)C1 (stereo unspecified) | > 100 µM | > 100 µM | 79 µM | > 100 µM | > 100 µM | > 100 µM
7 | C=C1C(=O)O[C@H]2[C@H](OC(C)=O)[C@@H](C)CCC/C(C)=C/CC[C@]3(CO3)[C@H](O)C[C@@H]12 | 2.56 µM | 10.2 µM | 3.24 µM | 12 µM | – | –
8 | Cc1cc(I)cc(CN(C)CCCCN2CCCC2)c1O | 35.8 µM | > 100 µM | 16.9 µM | 36.8 µM | 24.8 µM | 83.6 µM
9 | C[C@@H]1CC[C@H]2C(CN3CCN(CC4=C(C(F)(F)F)O[C@@H]5O[C@@]6(C)CC[C@H]7[C@H](C)CC[C@@H]4[C@@]57OO6)CC3)=C(C(F)(F)F)O[C@@H]3O[C@@]4(C)CC[C@@H]1[C@]32OO4 | 16.9 µM | > 100 µM | 3.13 µM | > 100 µM | 0.351 µM | > 100 µM
10 | O=c1c2c(=NCCCN3CCCC3)cc3c(=O)n(CCCN4CCCC4)c(=O)c4c(NCCCN5CCCC5)cc(c(O)n1CCCN1CCCC1)c2c4-3 | 2.96 µM | 7.79 µM | 1.42 µM | 10.9 µM | 3.66 µM | 36.7 µM
11 | ClCc1ccc(Cn2cnc3ncnc(Cl)c32)cc1 | – | – | 1.35 µM | 2.94 µM | 1.58 µM | 2.93 µM
12 | COCCn1cc(-c2csc(-c3c[nH]c4ccc(F)cc34)n2)c2cccnc21 | 18.8 µM | > 100 µM | 2.09 µM | > 100 µM | 5.07 µM | > 100 µM
13 | CCOc1ccc(N2C(N)=NC(N)=NC2(C)C)cc1 | 71.9 µM | > 100 µM | > 100 µM | > 100 µM | 45.7 µM | > 100 µM
14 | Cc1[nH]nc(C(=O)N/N=C/c2cccs2)c1N=NN(C)C | – | > 100 µM | – | 47.4 µM | – | > 100 µM
15 | Cc1ccc(Nc2ccnc(Nc3cccc(C(N)=O)c3)n2)cc1O | 7.14 µM | > 25 µM | 8.28 µM | > 25 µM | 5.42 µM | > 25 µM
16 | CC(C)=CCC[C@](C)(O)[C@H]1CC[C@]2(C)[C@@H]1CC[C@@H]1[C@@]3(C)CC[C@H](OC(=O)CCC(=O)O)C(C)(C)[C@@H]3CC[C@]12C | 27.5 µM | > 100 µM | 29.3 µM | > 100 µM | 8.79 µM | 28.4 µM
17 | C/C(=N\n1c(N)c(C#N)c(-c2ccc(Cl)cc2)c(C#N)c1=O)c1cccnc1 | > 100 µM | > 100 µM | > 100 µM | > 100 µM | > 100 µM | > 100 µM
18 | COc1cc(C=NCC(=O)CSC(c2ccccc2)c2ccccc2)cc(OC)c1OC | 40.8 µM | > 100 µM | 19.8 µM | > 100 µM | 9.09 µM | > 100 µM
19 | CC(Cl)CC(=O)Nc1ccc2c(c1)oc(=O)c1cc(NC(=O)CC(C)Cl)ccc12 (stereo unspecified) | 15.1 µM | 34.1 µM | 7.9 µM | 23.1 µM | 12.4 µM | 27.7 µM
20 | CCNC1=CC(=O)c2ncccc2C1=O | 1.18 µM | 2.44 µM | 1.17 µM | 3.2 µM | 2.71 µM | 22.8 µM
21 | NC(=O)c1ccc(NC(=O)c2oc3ccccc3c2-c2cnn(-c3ccccc3)c2)cc1 | – | – | > 100 µM | > 100 µM | – | –
22 | COc1cc(C(=O)c2c(-c3ccccc3)oc3ccccc23)cc(OC)c1O | 3.15 µM | 13.6 µM | 0.399 µM | 16 µM | 3.47 µM | 15.7 µM
23 | Nc1ccccc1C#Cc1ccccc1C#CCCCCO | 28.2 µM | > 100 µM | 60.8 µM | > 100 µM | 27.8 µM | 99.4 µM
24 | Fc1cc(Nc2ccc3c(OCCCN4CCOCC4)cccc3n2)ccc1Cl | 3.62 µM | 13.1 µM | – | – | 2.08 µM | 5.83 µM
